According to patent EP4603105A1, “PHARMACEUTICAL COMPOSITION CONTAINING CYCLIC COMPOUND HAVING SELECTIVE KRAS INHIBITORY EFFECT AGAINST HRAS AND NRAS” (CHUGAI SEIYAKU KABUSHIKI KAISHA, priority 2022, dated 2024):
pIC50: −log10 of the molar value. Where a SMILES comes first, the peptide text is derived from it. Bridges are numbered along the chain shown (N, C = ends). [ ]: non-standard residue; d: D form. The star is where a group is joined. hPhe(3-Cl-4-CF3) = N[C@@H](CCc1ccc(C(F)(F)F)c(Cl)c1)C(=O)O; NPrPhe(4-CF3) = CCCN[C@@H](Cc1ccc(C(F)(F)F)cc1)C(=O)O; NMeGly(cPent) = CN[C@H](C(=O)O)C1CCCC1; Pro(4,4-F2) = O=C(O)[C@@H]1CC(F)(F)CN1; NMeL = CN[C@@H](CC(C)C)C(=O)O; Morpholide = C1CN(*)CCO1; Ac5c = NC1(C(=O)O)CCCC1; Sar = CNCC(=O)O

Legend:
[1] = molecular target: GDP-bound NRAS wild-type protein (Homo sapiens, UniProt P01111); assay: Binding to NRAS by surface plasmon resonance (SPR), KD and KD ratio to KRAS
Chain of GDP-bound NRAS wild-type protein (P01111 whole entry): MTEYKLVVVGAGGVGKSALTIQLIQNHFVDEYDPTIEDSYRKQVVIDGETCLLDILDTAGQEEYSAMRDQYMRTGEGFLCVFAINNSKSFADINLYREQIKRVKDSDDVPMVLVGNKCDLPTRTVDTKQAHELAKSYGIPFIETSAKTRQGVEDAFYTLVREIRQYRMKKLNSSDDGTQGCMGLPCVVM
In short: (§1)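 Single-cycle kinetics on GDP-loaded biotin-Avi RAS captured to ~100–300 RU; 75 s ascending injections, 100 µL/min, 30°C. HBS pH 7.4 + 10 mM MgCl2/10 µM GDP/4% DMSO. 1:1 fit, KD.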

HRAS wild-type protein = HRAS wild-type protein (Homo sapiens, UniProt P01112); assay: Binding to HRAS by surface plasmon resonance (SPR), KD and KD ratio to KRAS
Chain of HRAS wild-type protein (P01112 whole entry): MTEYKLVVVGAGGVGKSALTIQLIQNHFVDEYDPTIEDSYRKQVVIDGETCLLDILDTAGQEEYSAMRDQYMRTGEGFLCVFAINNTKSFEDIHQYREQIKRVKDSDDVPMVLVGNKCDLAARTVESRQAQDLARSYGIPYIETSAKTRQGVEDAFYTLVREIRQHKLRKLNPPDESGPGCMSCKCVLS
In short: as §1

[2] = tested on: human lung cancer strain NCI-H441; format: cell-based
In short: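 Proliferation was scored by […] measured after the reagent was added to cultures kept at 37°C in 5% carbon dioxide.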

[3] = ratio of KD value for GDP-bound NRAS wild-type protein to KD value for KRAS (SPR)
[4] = ratio of KD value for HRAS wild-type protein to KD value for KRAS (SPR)
[5] = ratio of the KD value with respect to GDP-bound NRAS wild-type protein to the KD value with respect to KRAS
[6] = ratio of the KD value with respect to HRAS wild-type protein to the KD value with respect to KRAS

Row | Structure (SMILES) | pIC50 [2] | NRAS /KRAS [1, 3] | HRAS /KRAS (HRAS wild-type protein; [4]) | NRAS /KRAS [1, 5] | HRAS /KRAS (HRAS wild-type protein; [6]) | NRAS /KRAS ([1]; ratio of KD for GDP-bound NRAS wild-type protein to KD for KRAS) | HRAS /KRAS (HRAS wild-type protein; ratio of KD for HRAS wild-type protein to KD for KRAS)
1 | CC[C@H](C)[C@@H]1NC(=O)[C@H](CC(C)C)N(C)C(=O)C[C@@H](C(=O)N2CCOCC2)N(C)C(=O)[C@H](C2CCCC2)N(C)C(=O)C2(CCCC2)NC(=O)[C@@H]2CCCN2C(=O)[C@H](CCc2cc(F)c(C(F)(F)F)c(F)c2)NC(=O)CN(C)C(=O)[C@H](Cc2ccc(C(F)(F)F)cc2)N2CCCCC[C@@H](C2=O)N(C)C(=O)[C@@H]2CCN2C1=O [PP0484] | 6.78 | – | – | A (a compound having 10 or more and less than 20 is denoted as A) | B (a compound having 3 or more and less than 10 is denoted as B) | – | –
2 | CCO[C@@H]1C[C@H]2C(=O)NC3(CCC3)C(=O)N(C)[C@@H](C3CCCC3)C(=O)N(CC)[C@H](C(=O)N(C)C)CC(=O)N(C)[C@@H](CC)C(=O)N[C@@H]([C@@H](C)CC)C(=O)N(C)CC(=O)N(C)[C@H]3CCCCN(C3=O)[C@@H](Cc3ccc(C(F)(F)F)cc3)C(=O)N(C)CC(=O)N[C@@H](CCc3cc(F)c(C(F)(F)F)c(F)c3)C(=O)N2C1 [PP0643] | 8.19 | – | – | C (A compound having a KD ratio of 0.1 or more and less than 3 is denoted as C) | B (a compound having 3 or more and less than 10 is denoted as B) | – | –
3 | CCO[C@@H]1C[C@H]2C(=O)NC3(CCC3)C(=O)N(C)[C@@H](C3CCCC3)C(=O)N(CCC3CCC3)[C@H](C(=O)N(C)C)CC(=O)N(C)[C@@H](CC)C(=O)N[C@@H]([C@@H](C)CC)C(=O)N(C)CC(=O)N(C)[C@H]3CCCCCN(C3=O)[C@@H](Cc3ccc(C(F)(F)F)cc3)C(=O)N(C)CC(=O)N[C@@H](CCc3cc(F)c(C(F)(F)F)c(F)c3)C(=O)N2C1 [PP0635] | 7.07 | – | – | B (a compound having 3 or more and less than 10 is denoted as B) | B (a compound having 3 or more and less than 10 is denoted as B) | – | –
4 | CCCN1C(=O)CN(C)C(=O)CN(C)C(=O)[C@H]([C@@H](C)CC)NC(=O)[C@H](CC(C)C)N(C)C(=O)C[C@@H](C(=O)N2CCOCC2)NC(=O)[C@H](C2CCCC2)N(C)C(=O)C2(CCCC2)NC(=O)[C@@H]2CC(F)(F)CN2C(=O)[C@H](CCc2ccc(C(F)(F)F)c(Cl)c2)NC(=O)CN(C)C(=O)[C@@H]1Cc1ccc(C(F)(F)F)cc1 [PP0321] ([NMeL]I[Sar][Sar][NPrPhe(4-CF3)][Sar][hPhe(3-Cl-4-CF3)][Pro(4,4-F2)][Ac5c][NMeGly(cPent)]D-Morpholide; lactam N-11) | 7.25 | – | – | – | – | B (a compound having 3 or more and less than 10 is denoted as B) | B (a compound having 3 or more and less than 10 is denoted as B)

Continued, in another order:

Row | pIC50 [2] | Structure (SMILES) | NRAS /KRAS [1, 3] | HRAS /KRAS (HRAS wild-type protein; [4]) | NRAS /KRAS [1, 5] | HRAS /KRAS (HRAS wild-type protein; [6]) | NRAS /KRAS ([1]; ratio of KD for GDP-bound NRAS wild-type protein to KD for KRAS) | HRAS /KRAS (HRAS wild-type protein; ratio of KD for HRAS wild-type protein to KD for KRAS)
5 | 7.33 | CCO[C@@H]1C[C@H]2C(=O)NC3(CCC3)C(=O)N(C)[C@@H](C3CCCC3)C(=O)N(C)[C@H](C(=O)N(C)C)CC(=O)N(C)[C@@H](CC3CCCC3)C(=O)N[C@@H]([C@@H](C)CC)C(=O)N(C)CC(=O)N(C)[C@H]3C/C=C\CCN(C3=O)[C@@H](Cc3ccc(C)cc3)C(=O)N(C)CC(=O)N[C@@H](CCc3ccc(Cl)c(Cl)c3)C(=O)N2C1 [PP1487] | A (a compound having 10 or more and less than 20 is denoted as A) | A (a compound having 10 or more and less than 20 is denoted as A) | – | – | – | –
6 | 7.73 | CCC[C@H]1C(=O)N[C@@H]([C@@H](C)CC)C(=O)N(C)CC(=O)N(C)[C@H]2C/C=C\CCN(C2=O)[C@@H](Cc2ccc(C)cc2)C(=O)N(C)CC(=O)N[C@@H](CCc2ccc(C(F)(F)F)c(Cl)c2)C(=O)N2C[C@@H](C)C[C@H]2C(=O)NC2(CC(C)(C)C2)C(=O)N(C)[C@@H](C2CCCC2)C(=O)N(C)[C@H](C(=O)N(C)CC)CC(=O)N1C [PP1893] | A (a compound having 10 or more and less than 20 is denoted as A) | B (a compound having 3 or more and less than 10 is denoted as B) | – | – | – | –
